Drawing on the RepoRT retention time repository (doi:10.1016/j.foodchem.2021.129757), this text covers LC retention time for 33 compounds.

The structures appear in SMILES notation.

Common to all, as to conditions: stereoisomer not certain
Data set [1] is described as follows: RP, Phenomenex Kinetex EVO C18, 100 × 2.1 mm, 2.6 µm, 40 °C, 0.4 mL/min, estimated dead time 0.55 min; A: water + 0.2% formic acid; B: acetonitrile + 0.2% formic acid; gradient (min/%B) 0/5 0.5/5 7/95 8/95 8.5/5 12/5.
A short description of data set [2]: RP, Agilent ZORBAX RRHD Eclipse Plus C18, 50 × 2.1 mm, 1.8 µm, 30 °C, 0.4 mL/min, estimated dead time 0.28 min; A: water + 0.1% formic acid, pH 3; B: acetonitrile + 0.1% formic acid, pH 3; gradient (min/%B) 0/1 5/10 8/25 9.1/99 10/99 12/1.
Data set [3] is described as follows: RP, Agilent ZORBAX RRHD Eclipse Plus C18, 50 × 2.1 mm, 1.8 µm, 30 °C, 0.4 mL/min, estimated dead time 0.28 min; A: water + 0.1% formic acid, pH 3; B: acetonitrile + 0.1% formic acid, pH 3; gradient (min/%B) 0/1 5/10 8/25 9.1/99 10/99 12/99.
Data set [4] can be described thus: RP, Waters Atlantis T3, 100 × 2.1 mm, 3 µm, 40 °C, 0.3 mL/min, estimated dead time 0.73 min; A: water + 0.1% trifluoroacetic acid, pH 2; B: acetonitrile + 0.1% trifluoroacetic acid, pH 2; gradient (min/%B) 0/10 1/10 6/40 7/50 8/50 14/70 16/80 20/10 25/10.
Data set [5] in a line: RP, Waters ACQUITY UPLC HSS T3, 100 × 2.1 mm, 1.8 µm, 30 °C, 0.4 mL/min, estimated dead time 0.55 min; A: water + 0.1% formic acid, pH 3; B: acetonitrile + 0.1% formic acid, pH 3; gradient (min/%B) 0/0 2/0 15/100 22/100 22.1/0 26/0.
Data set [6] can be described thus: RP, Phenomenex Synergi Hydro-RP, 250 × 2 mm, 4 µm, 25 °C, 0.2 mL/min, estimated dead time 2.5 min; A: water + 0.1% formic acid, pH 3; B: acetonitrile + 0.1% formic acid, pH 3; gradient (min/%B) 0/0.5 7/0.5 12/12.5 25/16.3 47/35 48/65 50/65 50.1/0.5.
Data set [7] is described as follows: RP, Waters ACQUITY UPLC BEH C18, 100 × 2.1 mm, 1.7 µm, 65 °C, 0.4 mL/min, estimated dead time 0.55 min; A: water + 0.1% formic acid, pH 3; B: 80% acetonitrile + 20% acetone + 0.1% formic acid, pH 3; gradient (min/%B) 0/0 5/100 5.5/0 6/0.
Data set [8] in a line: RP, Waters ACQUITY UPLC HSS T3, 100 × 2.1 mm, 50 °C; A: water + 0.1% formic acid, pH 3; B: 30% methanol + 70% acetonitrile + 0.1% formic acid, pH 3; gradient (min/%B) 0/5 1/8 2/15 3/40 4/70 4.5/100 5/100 6.4/100 6.6/5 6.8/5 7/5.
Data set [9] is described as follows: RP, Agilent InfinityLab Poroshell 120 EC-C18, 100 × 3 mm, 2.7 µm, 25 °C, 0.4 mL/min, estimated dead time 1.1 min; A: water + 0.1% formic acid, pH 3; B: acetonitrile + 0.1% formic acid, pH 3; gradient (min/%B) 0/5 10/25 20/40 24/90 25/90 26/5 30/5.
The nature of data set [10]: RP, 150 × 2.1 mm, 2.6 µm, 40 °C, 0.35 mL/min, estimated dead time 0.94 min; A: water + 0.1% formic acid, pH 3; B: acetonitrile + 0.1% formic acid, pH 3; gradient (min/%B) 0/0 1/5 7/45 8.5/80 10.5/80 11/5 12/5.
Data set [11] is described as follows: RP, 150 × 2.1 mm, 2.6 µm, 40 °C, 0.35 mL/min, estimated dead time 0.94 min; A: water + 0.1% formic acid, pH 3; B: acetonitrile + 0.1% formic acid, pH 3; gradient (min/%B) 0/0 1/0 12.5/100 14/100 14.2/0 15/0.

Turning to `COc1ccc(C(=O)O)cc1OS(=O)(=O)O` [Isovanillic acid-3-O-sulfate], the figures for the LC retention time in data set [1], in data set [2] and in data set [3] were 3.68 min, 3.98 min and 3.47 min, respectively.
As to `COc1cc(O)c2c(c1)OC(c1ccc(O)cc1)CC2=O` (stereo unspecified) [Sakuranetin], in data set [4], the LC retention time is 12.1 min.
Consider `O=C(O)CCc1cccc(O)c1` [3-(3-hydroxyphenyl)propanoic acid], for which the LC retention time is 4.51 min in [1]; 9.17 min in data set [5]; 29.5 min in data set [6]; 7.32 min in data set [2]; 7.28 min in [3].
Regarding `CC(C)c1cc2c(c(O)c1O)C1(C(=O)O)CCCC(C)(C)C1CC2` (stereo unspecified) [Carnosic acid], the LC retention time in [4] is 15.2 min.
Turning to `COc1cc(O)c(CC=C(C)C)c(O)c1C(=O)C=Cc1ccc(O)cc1` [Xanthohumol], the LC retention time in data set [4] was 15.4 min.
For `O=Cc1ccc(O)c(O)c1` [3,4-Dihydroxybenzaldehyde], the results for the LC retention time in [1], in data set [2] and in data set [3] were 2.18 min, 4.12 min and 3.73 min, respectively.
Consider `CC1OC(OCC2OC(Oc3cc(O)c4c(c3)OC(c3ccc(O)cc3)CC4=O)C(O)C(O)C2O)C(O)C(O)C1O` (stereo unspecified) [Narirutin], for which the LC retention time in [4] was 7.65 min.
On to `O=C(O)c1ccc(O)c(OC2OC(C(=O)O)C(O)C(O)C2O)c1` (stereo unspecified) [Protocatechuic acid-3-O-glucuronide], for which the LC retention time in data set [1] was 1.44 min; in data set [2] it was 2.8 min; in data set [3], 1.12 min.
As for `COc1cc(CCC(=O)O)ccc1OS(=O)(=O)O` [Dihydroferulic acid-4-O-Sulfate], the LC retention time in data set [1] was 4.36 min; in data set [2] it was 5.86 min; in [3], 4.05 min.
Take `CC(C)c1cc2c(c(O)c1O)C13CCCC(C)(C)C1CC2OC3=O` (stereo unspecified) [Carnosol]: the results for the LC retention time in data set [7], in data set [4] and in [8] were 4.02 min, 16.3 min and 4.52 min, respectively.
As to `Oc1cc(O)c2c(c1)OC(c1ccc(O)c(O)c1)C(O)C2c1c(O)cc(O)c2c1OC(c1ccc(O)c(O)c1)C(O)C2c1c(O)cc(O)c2c1OC(c1ccc(O)c(O)c1)C(O)C2` (stereo unspecified) [Procyanidin C1], in data set [4], the LC retention time was 6.03 min.
For the compound `O=C(O)C=Cc1ccc(OC2OC(C(=O)O)C(O)C(O)C2O)c(O)c1` (stereo unspecified) [Caffeic acid-4-glucuronide], the LC retention time was 2.45 min in data set [1], 3.98 min in data set [2] and 1.78 min in data set [3].
Regarding `O=C(O)C1OC(Oc2cc(O)cc(C=Cc3ccc(O)cc3)c2)C(O)C(O)C1O` (stereo unspecified) [Resveratrol 3-O-glucuronide], the results for the LC retention time in data set [1] and in data set [9] were 4.85 min and 11 min, respectively.
As to `COc1cc(C=CC(=O)O)ccc1OC1OC(C(=O)O)C(O)C(O)C1O` (stereo unspecified) [Ferulic acid-4-O-glucuronide], the LC retention time in data set [1] is 3.62 min; in data set [2] it was 4.81 min; in data set [3] it was 3.24 min.
On the same counts, the results for `COc1cc(C=CC(=O)O)ccc1OS(=O)(=O)O` [Ferulic acid 4-O-sulfate] are 4.59 min, 6.22 min and 4.67 min.
`CC(C)c1cc2c(c(O)c1O)C13CCCC(C)(C)C1C(OC3=O)C2O` (stereo unspecified) [Rosmanol]: in data set [4], the LC retention time is 11.8 min.
Regarding `CC(C)=CCc1c(O)cc(O)c2c1OC(c1ccc(O)cc1)CC2=O` (stereo unspecified) [8-prenylnaringenin], the LC retention time in [4] is 12.7 min.
Regarding `COc1ccc(C2CC(=O)c3c(O)cc(O)cc3O2)cc1OC1OC(C(=O)O)C(O)C(O)C1O` (stereo unspecified) [Hesperetin 3'-O-glucuronide], the LC retention time in data set [1] was 5.32 min; in [9] it was 12.2 min.
On to `Oc1cccc(O)c1O` [Pyrogallol], for which the values for the LC retention time in data set [10], in [4] and in [11] were 1.87 min, 1.93 min and 2.06 min, respectively.
`COc1ccc(C=CC(=O)O)cc1OS(=O)(=O)O` [Isoferulic acid 3-O-sulfate]: the LC retention time in data set [1] is 4.79 min; in data set [2] it was 6.76 min; in [3] it was 5.94 min.
As to `O=c1oc2c(O)c(O)ccc2c2cc(O)c(O)cc12` [Urolithin  D], the LC retention time was 4.68 min in data set [1] and 8.24 min in data set [9].
Take `COc1ccc(CCC(=O)O)cc1OC1OC(C(=O)O)C(O)C(O)C1O` (stereo unspecified) [Dihydro isoferulic acid-3-O-glucuronide]: the LC retention time was 4.22 min in [1], 6.49 min in data set [2] and 6.53 min in data set [3].
As for `O=C(O)CCc1ccc(O)c(OS(=O)(=O)O)c1` [Dihydrocaffeic acid-3-O-sulfate], the figures for the LC retention time in [1], in data set [2] and in data set [3] were 4.04 min, 5.08 min and 2.83 min, respectively.
Consider `O=C(O)C1OC(Oc2ccc3c(c2)oc(=O)c2ccccc23)C(O)C(O)C1O` (stereo unspecified) [Urolithin B-3-O-glucuronide], for which the LC retention time in [1] was 5.23 min; in [9], 11.6 min.
In the case of `O=C(O)CCc1ccc(O)c(OC2OC(C(=O)O)C(O)C(O)C2O)c1` (stereo unspecified) [Dihydrocaffeic acid-3-O-glucuronide], the LC retention time is 3.22 min in [1], 5.11 min in data set [2] and 3.94 min in data set [3].
In the case of `COc1ccc(C=CC(=O)O)cc1OC1OC(C(=O)O)C(O)C(O)C1O` (stereo unspecified) [Isoferulic acid-3-O-glucuronide], the LC retention time is 4.25 min in data set [1], 34.4 min in data set [6], 6.36 min in data set [2] and 6.38 min in [3].
Regarding `O=C(O)c1ccc(OS(=O)(=O)O)c(O)c1` [Protocatechuic acid-4-O-sulfate], the values for the LC retention time in data set [1], in [2] and in data set [3] were 2.38 min, 2.44 min and 0.954 min, respectively.
As to `O=C(O)C1OC(Oc2ccc(C=Cc3cc(O)cc(O)c3)cc2)C(O)C(O)C1O` (stereo unspecified) [Resveratrol 4-O-glucuronide], the LC retention time in [1] is 4.64 min; in data set [9] it was 9.05 min.
Consider `COc1cc(C(=O)O)ccc1OS(=O)(=O)O` [Vanillic acid-4-O-sulfate], for which the figures for the LC retention time in [1], in data set [2] and in [3] were 3.13 min, 3.82 min and 2 min, respectively.
For the compound `O=c1c(O)c(-c2ccc(O)cc2)oc2cc(OC3OC(CO)C(O)C(O)C3O)cc(O)c12` (stereo unspecified) [kaempferol-7-O-glucoside], the values for the LC retention time in data set [6] and in data set [4] were 38.3 min and 7.37 min, respectively.
For `COc1ccc(C2CC(=O)c3c(O)cc(OC4OC(COC5OC(C)C(O)C(O)C5O)C(O)C(O)C4O)cc3O2)cc1` (stereo unspecified) [Didymin], the LC retention time in [4] is 9.08 min.
As to `O=C(O)CNC(=O)c1ccc(O)cc1` [4-Hydroxyhippuric acid], the LC retention time is 1.55 min in [1]; 3.56 min in data set [10]; 2.19 min in data set [8]; 3.82 min in data set [11]; 3.19 min in data set [2]; 1.63 min in [3].
As for `COc1cc(O)c(CC=C(C)C)c2c1C(=O)CC(c1ccc(O)cc1)O2` (stereo unspecified) [Isoxanthumol], the LC retention time in data set [4] is 11.1 min.
